Data from US11566007B2, “Ras inhibitors” (Revolution Medicines, Inc., priority 2019, dated 2023).
Like-named read-outs stand apart in the source and are kept apart here.

Key:
KRAS G13D = KRAS G13D (Homo sapiens (Human), UniProt P01116+P62937, G13D); experiment: Ras-Raf (BRAF RBD) disruption / FRET / MOA assay, KRAS G13D; type: biochemical; details: read-out: IC50* KRAS G13D FRET data
Method in brief: (§1)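 Compound-driven ternary complex of nucleotide-loaded Ras with cyclophilin A, disrupting BRAF RBD binding. 10-point 3-fold dilution from 30 μM final, 3 h at 25° C, then anti-His Eu-W1024 (10 nM) and anti-GST allophycocyanin (50 nM) for 1.5 h. IC50 from TR-FRET ratio decrease versus DMSO.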

NCI-H358 (K-Ras G12C) = experiment: CellTiter-Glo cell viability assay, NCI-H358; type: cell-based, human; details: NCI-H358, 5-day treatment, class symbols, read-out: Additional H358 Cell Viability assay data (K-Ras G12C, IC50)
Method in brief: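 Viability measured by CellTiter-Glo luminescence on day 5 following direct addition of compound to plated cells. Values expressed as percent of mean DMSO signal; curves fitted with a four-parameter logistic model.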

K-Ras G12C = K-Ras G12C (Homo sapiens (Human), UniProt P01116+P62937, G12C); experiment: Ras-Raf (BRAF RBD) disruption / FRET / MOA assay, KRAS G12C; type: biochemical; details: KRAS G12C; Ras-Raf disruption/FRET/MOA assay; read-out: IC50* KRAS G12C FRET data
Method in brief: as §1

[1] = tested on: NCI-H358 cells (K-Ras G12C); experiment: Potency assay: pERK in NCI-H358 cells; type: cell-based, human; details: Homo sapiens, NCI-H358; H358 KRAS G12C; read-out: pERK EC50
Method in brief: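 4 h cpd, 37 °C; 10-pt 3-fold series, 10 mM DMSO top stock, duplicates. Readout pERK: AlphaLISA SureFire Ultra or In-Cell Western (IR-800CW secondary, DRAQ5 DNA stain). IC50, 4-PL fit vs log conc.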

KRAS G12D = KRAS G12D (Homo sapiens (Human), UniProt P01116+P62937, G12D); experiment: Ras-Raf (BRAF RBD) disruption / FRET / MOA assay, KRAS G12D; type: biochemical; details: Ras-Raf disruption/FRET/MOA assay; class symbols; read-out: KRAS G12D FRET data IC50
Method in brief: as §1

KRAS WT = KRAS WT (Homo sapiens (Human), UniProt P01116+P62937); experiment: Ras-Raf (BRAF RBD) disruption / FRET / MOA assay, KRAS WT; type: biochemical; details: read-out: IC50* KRAS WT FRET data
Method in brief: as §1

K-Ras G13C = K-Ras G13C (Homo sapiens (Human), UniProt P01116+P62937, G13C); experiment: Ras-Raf (BRAF RBD) disruption / FRET / MOA assay, KRAS G13C; type: biochemical; details: KRAS G13C; Ras-Raf disruption/FRET/MOA assay; read-out: IC50* KRAS G13C FRET data
Method in brief: as §1

KRAS G12S = KRAS G12S (Homo sapiens (Human), UniProt P01116+P62937, G12S); experiment: Ras-Raf (BRAF RBD) disruption / FRET / MOA assay, KRAS G12S; type: biochemical; details: Ras-Raf disruption/FRET/MOA assay; class symbols; read-out: KRAS G12S FRET data IC50
Method in brief: as §1

NRAS G12C = NRAS G12C (Homo sapiens (Human), UniProt P01111+P62937, G12C); experiment: Ras-Raf (BRAF RBD) disruption / FRET / MOA assay, NRAS G12C; type: biochemical; details: read-out: IC50* NRAS G12C FRET data
Method in brief: as §1

KRAS G12V = KRAS G12V (Homo sapiens (Human), UniProt P01116+P62937, G12V); experiment: Ras-Raf (BRAF RBD) disruption / FRET / MOA assay, KRAS G12V; type: biochemical; details: read-out: IC50* KRAS G12V FRET data
Method in brief: as §1

NRAS G12C, sequence (P01111 whole entry G12C): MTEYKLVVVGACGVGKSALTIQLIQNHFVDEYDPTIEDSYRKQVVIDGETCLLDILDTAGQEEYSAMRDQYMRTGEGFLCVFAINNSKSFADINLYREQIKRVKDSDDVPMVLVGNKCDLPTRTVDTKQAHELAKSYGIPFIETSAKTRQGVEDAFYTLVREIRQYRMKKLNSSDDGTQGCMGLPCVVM
NRAS G12C, sequence (P62937 whole entry): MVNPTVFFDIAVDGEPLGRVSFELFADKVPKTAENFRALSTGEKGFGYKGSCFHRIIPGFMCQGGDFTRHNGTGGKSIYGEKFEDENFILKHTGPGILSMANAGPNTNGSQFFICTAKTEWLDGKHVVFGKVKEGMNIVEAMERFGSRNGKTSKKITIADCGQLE
KRAS G12D, sequence (P01116-2 other isoform, or with tags, fused parts or gaps G12D): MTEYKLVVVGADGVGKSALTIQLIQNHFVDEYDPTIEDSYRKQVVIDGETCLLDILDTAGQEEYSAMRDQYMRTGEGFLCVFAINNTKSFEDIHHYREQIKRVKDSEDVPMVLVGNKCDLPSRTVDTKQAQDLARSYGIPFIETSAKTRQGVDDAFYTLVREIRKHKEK
KRAS G12D, sequence (P62937 whole entry): as the sequence (P62937 whole entry) above
KRAS G12S, sequence (P01116-2 other isoform, or with tags, fused parts or gaps G12S): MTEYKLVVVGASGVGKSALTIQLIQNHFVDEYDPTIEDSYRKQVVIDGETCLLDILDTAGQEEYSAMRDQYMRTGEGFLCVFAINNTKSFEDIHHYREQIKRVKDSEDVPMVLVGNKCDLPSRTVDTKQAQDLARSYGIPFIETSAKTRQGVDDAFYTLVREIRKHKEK
KRAS G12S, sequence (P62937 whole entry): as the sequence (P62937 whole entry) above
K-Ras G12C, sequence (P01116-2 other isoform, or with tags, fused parts or gaps G12C): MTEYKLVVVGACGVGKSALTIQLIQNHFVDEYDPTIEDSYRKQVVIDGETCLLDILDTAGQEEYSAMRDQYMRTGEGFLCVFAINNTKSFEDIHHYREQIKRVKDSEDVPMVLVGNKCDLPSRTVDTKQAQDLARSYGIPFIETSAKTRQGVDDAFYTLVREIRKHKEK
K-Ras G12C, sequence (P62937 whole entry): as the sequence (P62937 whole entry) above
KRAS G12V, sequence (P01116-2 other isoform, or with tags, fused parts or gaps G12V): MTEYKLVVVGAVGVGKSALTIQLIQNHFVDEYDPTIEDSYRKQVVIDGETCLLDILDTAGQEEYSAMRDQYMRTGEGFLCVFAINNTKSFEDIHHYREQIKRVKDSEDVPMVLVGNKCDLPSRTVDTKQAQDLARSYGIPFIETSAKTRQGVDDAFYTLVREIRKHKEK
KRAS G12V, sequence (P62937 whole entry): as the sequence (P62937 whole entry) above
K-Ras G13C, sequence (P01116-2 other isoform, or with tags, fused parts or gaps G13C): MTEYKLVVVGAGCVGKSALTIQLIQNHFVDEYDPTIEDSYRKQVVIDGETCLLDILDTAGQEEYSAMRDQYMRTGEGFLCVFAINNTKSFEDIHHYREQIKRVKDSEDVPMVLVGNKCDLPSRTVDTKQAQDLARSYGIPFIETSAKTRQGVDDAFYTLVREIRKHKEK
K-Ras G13C, sequence (P62937 whole entry): as the sequence (P62937 whole entry) above
KRAS WT, sequence (P01116-2 other isoform, or with tags, fused parts or gaps): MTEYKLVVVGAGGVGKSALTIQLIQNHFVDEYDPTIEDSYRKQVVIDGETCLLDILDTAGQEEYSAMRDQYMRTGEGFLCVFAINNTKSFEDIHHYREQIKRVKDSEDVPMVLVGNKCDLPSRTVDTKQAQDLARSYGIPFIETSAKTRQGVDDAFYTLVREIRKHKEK
KRAS WT, sequence (P62937 whole entry): as the sequence (P62937 whole entry) above
KRAS G13D, sequence (P01116-2 other isoform, or with tags, fused parts or gaps G13D): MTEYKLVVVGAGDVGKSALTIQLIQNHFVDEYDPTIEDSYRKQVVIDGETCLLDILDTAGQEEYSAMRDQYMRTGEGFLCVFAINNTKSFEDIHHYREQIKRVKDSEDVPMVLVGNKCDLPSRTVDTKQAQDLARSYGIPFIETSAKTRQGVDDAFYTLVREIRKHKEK
KRAS G13D, sequence (P62937 whole entry): as the sequence (P62937 whole entry) above

IC50 (KRAS G13D)	IC50 (NCI-H358 (K-Ras G12C); Homo sapiens, NCI-H358, 120 h)	IC50 (K-Ras G12C)	EC50 [1]	IC50 (KRAS G12D)	IC50 (KRAS WT)	IC50 (K-Ras G13C)	IC50 (KRAS G12S)	IC50 (NRAS G12C)	IC50 (KRAS G12V)	IC50 (NCI-H358 (K-Ras G12C))	SMILES
1000 to 10000 nM	100 to 1000 nM	100 to 1000 nM	< 5000 nM	> 10000 nM	1000 to 10000 nM	> 10000 nM	1000 to 10000 nM	100 to 1000 nM	1000 to 10000 nM	–	C=CC(=O)N1C[C@@H](C(=O)N(C)[C@@H](C(=O)N[C@H]2Cc3cc(O)cc(c3)-c3ccc4c(c3)c(c(-c3cccnc3COC)n4CC)CC(C)(C)COC(=O)[C@@H]3CCCN(N3)C2=O)C(C)C)C[C@H]1C [Example A159]
1000 to 10000 nM	< 10 nM	< 10 nM	< 5000 nM	1000 to 10000 nM	1000 to 10000 nM	100 to 1000 nM	1000 to 10000 nM	< 10 nM	100 to 1000 nM	–	CCn1c(-c2cccnc2COC)c2c3cc(ccc31)-c1cc(O)cc(c1)C[C@H](NC(=O)[C@H](C(C)C)N(C)C(=O)[C@@H]1CCN(C(=O)C#CC(C)(C)N(C)C)C1)C(=O)N1CCC[C@H](N1)C(=O)OCC(C)(C)C2 [Example A162]
100 to 1000 nM	–	10 to 100 nM	< 5000 nM	1000 to 10000 nM	100 to 1000 nM	100 to 1000 nM	100 to 1000 nM	10 to 100 nM	100 to 1000 nM	100 to 1000 nM	CCn1c(-c2cccnc2COC)c2c3cc(ccc31)-c1cc(O)cc(c1)C[C@H](NC(=O)[C@H](C(C)C)N(C)C(=O)[C@H]1CCC(C(=O)/C=C\CN(C)C)C1)C(=O)N1CCC[C@H](N1)C(=O)OCC(C)(C)C2 (stereo partly shown) [Example A164]
> 10000 nM	10 to 100 nM	10 to 100 nM	< 5000 nM	> 10000 nM	> 10000 nM	100 to 1000 nM	> 10000 nM	10 to 100 nM	> 10000 nM	–	CCn1c(-c2cccnc2COC)c2c3cc(ccc31)-c1cc(O)cc(c1)C[C@H](NC(=O)[C@@H](C(C)C)N(C)C(=O)[C@H]1C[C@@H](C)N(C(=O)C#CCN(C)C)C1)C(=O)N1CCC[C@H](N1)C(=O)OCC(C)(C)C2 [Example A165]
> 10000 nM	100 to 1000 nM	100 to 1000 nM	< 5000 nM	> 10000 nM	1000 to 10000 nM	1000 to 10000 nM	1000 to 10000 nM	100 to 1000 nM	1000 to 10000 nM	–	CC#CC(=O)N1CC[C@@H](C(=O)N(C)[C@H](C(=O)N[C@H]2Cc3cc(O)cc(c3)-c3ccc4c(c3)c(c(-c3cncnc3)n4CC)CC(C)(C)COC(=O)[C@@H]3CCCN(N3)C2=O)C(C)C)C1 [Example A169]
1000 to 10000 nM	> 1000 nM	10 to 100 nM	< 5000 nM	1000 to 10000 nM	1000 to 10000 nM	10 to 100 nM	100 to 1000 nM	10 to 100 nM	100 to 1000 nM	–	C/C=C(\C#N)C(=O)N1CC[C@H](C(=O)N(C)[C@H](C(=O)N[C@H]2Cc3cc(O)cc(c3)-c3ccc4c(c3)c(c(-c3cccnc3COC)n4CC)CC(C)(C)COC(=O)[C@@H]3CCCN(N3)C2=O)C(C)C)C1 [Example A178]
1000 to 10000 nM	> 1000 nM	10 to 100 nM	< 5000 nM	1000 to 10000 nM	1000 to 10000 nM	100 to 1000 nM	1000 to 10000 nM	10 to 100 nM	1000 to 10000 nM	–	C=CC(=O)N1CC[C@@H](C(=O)N(C)[C@H](C(=O)N[C@H]2Cc3cc(O)cc(c3)-c3ccc4c(c3)c(c(-c3cncnc3)n4CC)CC(C)(C)COC(=O)[C@@H]3CCCN(N3)C2=O)C(C)C)O1 [Example A179]
1000 to 10000 nM	> 1000 nM	100 to 1000 nM	< 5000 nM	1000 to 10000 nM	100 to 1000 nM	100 to 1000 nM	1000 to 10000 nM	100 to 1000 nM	100 to 1000 nM	–	C=CC(=O)N1CC[C@H](C(=O)N(C)[C@H](C(=O)N[C@H]2Cc3cc(O)cc(c3)-c3ccc4c(c3)c(c(-c3cncnc3)n4CC)CC(C)(C)COC(=O)[C@@H]3CCCN(N3)C2=O)C(C)C)O1 [Example A180]
100 to 1000 nM	> 1000 nM	10 to 100 nM	< 5000 nM	100 to 1000 nM	100 to 1000 nM	100 to 1000 nM	100 to 1000 nM	10 to 100 nM	100 to 1000 nM	–	CCn1c(-c2cccnc2COC)c2c3cc(ccc31)-c1cc(O)cc(c1)C[C@H](NC(=O)[C@H](C(C)C)N(C)C(=O)[C@H]1CCN(C(=O)C#CCN3CCN(C)CC3)C1)C(=O)N1CCC[C@H](N1)C(=O)OCC(C)(C)C2 [Example A189]

SMILES	IC50 (KRAS G13D)	IC50 (NCI-H358 (K-Ras G12C); Homo sapiens, NCI-H358, 120 h)	IC50 (K-Ras G12C)	EC50 [1]	IC50 (KRAS G12D)	IC50 (KRAS WT)	IC50 (K-Ras G13C)	IC50 (KRAS G12S)	IC50 (NRAS G12C)	IC50 (KRAS G12V)	IC50 (NCI-H358 (K-Ras G12C))
C=CC(=O)N1C[C@@H](C(=O)N(C)[C@H](C(=O)N[C@H]2Cc3cc(O)cc(c3)-c3ccc4c(c3)c(c(-c3cccnc3COC)n4CC)CC(C)(C)COC(=O)[C@@H]3CCCN(N3)C2=O)C(C)C)C[C@H]1C [Example A158]	100 to 1000 nM	10 to 100 nM	10 to 100 nM	< 5000 nM	> 10000 nM	100 to 1000 nM	100 to 1000 nM	100 to 1000 nM	10 to 100 nM	1000 to 10000 nM	–
CCn1c(-c2cccnc2COC)c2c3cc(ccc31)-c1cc(O)cc(c1)C[C@H](NC(=O)[C@H](C(C)C)N(C)C(=O)[C@H]1C[C@@H](C)N(C(=O)C#CCN(C)C)C1)C(=O)N1CCC[C@H](N1)C(=O)OCC(C)(C)C2 [Example A175]	1000 to 10000 nM	< 10 nM	< 10 nM	< 5000 nM	1000 to 10000 nM	1000 to 10000 nM	< 10 nM	1000 to 10000 nM	< 10 nM	1000 to 10000 nM	–
CCn1c(-c2cncnc2)c2c3cc(ccc31)-c1cc(O)cc(c1)C[C@H](NC(=O)[C@H](C(C)C)N(C)C(=O)[C@H]1CCN(C(=O)C#CCN3CCOCC3)C1)C(=O)N1CCC[C@H](N1)C(=O)OCC(C)(C)C2 [Example A176]	> 10000 nM	10 to 100 nM	< 10 nM	< 5000 nM	> 10000 nM	> 10000 nM	1000 to 10000 nM	1000 to 10000 nM	< 10 nM	1000 to 10000 nM	–
CCn1c(-c2cncnc2)c2c3cc(ccc31)-c1csc(n1)C[C@H](NC(=O)[C@H](C(C)C)N(C)C(=O)[C@H]1CCN(C(=O)C#CCN3CCOCC3)C1)C(=O)N1CCC[C@H](N1)C(=O)OCC(C)(C)C2 [Example A177]	> 10000 nM	100 to 1000 nM	100 to 1000 nM	< 5000 nM	> 10000 nM	> 10000 nM	> 10000 nM	> 10000 nM	100 to 1000 nM	> 10000 nM	–
CCn1c(-c2cncnc2)c2c3cc(ccc31)-c1cccc(c1)C[C@H](NC(=O)[C@H](C(C)C)N(C)C(=O)[C@H]1CCN(C(=O)C#CCN3CCOCC3)C1)C(=O)N1CCC[C@H](N1)C(=O)OCC(C)(C)C2 [Example A185]	> 10000 nM	100 to 1000 nM	100 to 1000 nM	< 5000 nM	> 10000 nM	> 10000 nM	> 10000 nM	> 10000 nM	100 to 1000 nM	> 10000 nM	–
CCn1c(-c2cccnc2)c2c3cc(ccc31)-c1csc(n1)C[C@H](NC(=O)[C@H](C(C)C)N(C)C(=O)[C@H]1CCN(C(=O)C#CCN3CCOCC3)C1)C(=O)N1CCC[C@H](N1)C(=O)OCC(C)(C)C2 [Example A190]	> 10000 nM	100 to 1000 nM	100 to 1000 nM	< 5000 nM	> 10000 nM	> 10000 nM	> 10000 nM	> 10000 nM	100 to 1000 nM	> 10000 nM	–
CCn1c(-c2cccnc2)c2c3cc(ccc31)-c1cccc(c1)C[C@H](NC(=O)[C@H](C(C)C)N(C)C(=O)[C@H]1CCN(C(=O)C#CCN3CCOCC3)C1)C(=O)N1CCC[C@H](N1)C(=O)OCC(C)(C)C2 [Example A195]	> 10000 nM	100 to 1000 nM	100 to 1000 nM	< 5000 nM	> 10000 nM	> 10000 nM	> 10000 nM	> 10000 nM	100 to 1000 nM	> 10000 nM	–
